Assay results reported in patent US20230052667A1, “AGENT FOR MAINTAINING OR ENHANCING COLLAGEN PRODUCTION ABILITY” (Shiseido Company, Ltd., priority 2020, published 2023).

System: human skin-derived fibroblasts
Assay: Collagen quantification in fibroblasts after artificial sunlight irradiation through the wavelength conversion substance
Type: cell-based
Settings: artificial sunlight 80 minutes passed through substance (10% phosphor film or 1% aqueous solution, no cell contact); collagen measured 3 days after irradiation; UV-only control 14 μg collagen/well
Experimental: Preparation method: A film containing 10% Zinc Oxide phosphor, a film containing 10% magnesium titanate phosphor were used, and C-phycocyanin was dissolved in ultrapure water at a concentration of 1% and used as a solution. • Cells: human skin-derived fibroblasts • Collagen assay kit: Cosmo Bio Co., COL-001 • DNA-quantitation kit: Cosmo Bio Co., AK06 • Artificial Sunlight Irradiation System: Celick Corporation: XC-500BF
Human skin-derived fibroblasts cultured in 75 cm^2 flasks were treated with trypsin, and after harvesting the cells, the cells were seeded at a density of 2×10^5 cells/dish using medium on five 6-well plates according to the plate arrangement below. […]
After 3 days from illumination, culture supernatants were removed from wells for collagen quantitation in each treatment group and washed with PBS. Collagen in human fibroblast layers was extracted and measured according to the protocol of the collagen quantitation kit (https://search.cosmobio.co.jp/cosmo_searchp/search_gate2/docs/CSR_/COL001.20190327.pdf). In addition, the amount of DNA in samples after collagen extraction was determined for correction of collagen quantitative results according to the protocol of the Quantitative Kit of DNA (https://search.cosmobio.co.jp/cosmo)_search_p/search_gate2/docs/PMC_/AK06.20140507.pdf).

Substance: C-phycocyanin
- collagen produced by UV-irradiated fibroblasts: 25 μg collagen/well
